According to patent US20090011974A1, “Scavenger Receptor B1 (Cla-1) Targeting for the Treatment of Infection, Sepsis and Inflammation” (priority 2002, published 2009):
Like-named read-outs stand apart in the source and are kept apart here. Where no end group is shown, it is not given here. [ ]: non-standard residue; d: D form.

What was measured:
IL-1β = assay: RT-PCR of IL-1β mRNA in RAW cells exposed to LPS preparations; type: cell-based, mouse; conditions: 24 h
Procedure: (§1) Cell culture and treatment.
(§2) RNA isolation and cDNA preparation. The total RNA of cultured cells is isolated and purified using Trizol reagent (Gibco BRL, Grand Island, N.Y.) according to the manufacturer's protocol. The concentration and quality of RNA were determined by UV absorbance at 260 and 280 nm. To prepare cDNA, total RNA (3 μg) is added to a mixture containing the following: 6 μl of 5× first-strand buffer (75 mM KCl, 50 mM Tris-HCl [pH 8.3], 3 mM MgCl2), 1.5 μl of deoxynucleoside triphosphates (10 mM [each] dATP, dCTP, dTTP, and dGTP), 1.5 μl of 0.0156 U (0.4 μg) of random hexamers, and 0.2 U of Moloney murine leukemia virus reverse transcriptase (all from Gibco BRL, Gaithersburg, Md.); 0.004 U of RNasin (Promega, Madison, Wis.); and RNase-free water to a final volume of 30 μl per 3 μg of cDNA. Samples are incubated at 37° C. for 60 min. Preliminary experiments are undertaken to achieve optimal conditions for amplifying mRNA for each of the gene products.
(§3) Reverse transcription-PCR (RT-PCR). […]
(§4) For the densitometry analysis, the intensities of the bands are measured with the Gel-Pro Analyzer 3.0 computer program and normalized with GADPH intensity.

SR-BI/CLA-1 [1] = type: cell-based, mouse; conditions: 24 h; for activity as modulator of SR-BI, ABCA1 and IL-1β gene expression compared with other LPS preparations / relative activities for the suppressive effect on SR-BI/CLA-1 and ABCA1 expression and SR-BI/CLA-1 protein expression: 10 ng/ml, RAW cells
Procedure: as §1, §2
Reverse transcription-PCR (RT-PCR). A mixture of 37.2 μl of RNase-free water, 5 μl of 10× reaction buffer, and 0.5 μl (5 U) of AmpliTaq Gold DNA polymerase (Applied Biosystems, Roche Molecular Systems, Inc., Branchburg, N.J.), sense and antisense primers (1 μl each), and 0.3 μl (3 μCi) of [α-^32P]dCTP (Amersham Pharmacia Biotech, San Diego, Calif.) is vortexed, and 46 μl is aliquoted into each tube, containing 4 μl of cDNA, and overlaid with 50 μl of mineral oil (Sigma Chemical Co.). cDNA is amplified in a Perkin-Elmer (Norwalk, Conn.) System 2400 DNA thermal cycler, with denaturation for 1 min at 94° C., annealing for 1 min at 50° C., and extension for 2 min at 72° C. for GADPH (glyceraldehyde-3-phosphate dehydrogenase) (19 cycles), ABCA1 (28 cycles), SR-BI/CLA-1, and interleukin-1 [3 (IL-1β (27 cycles). The primers used in these analyses are as follows: GADPH, (SEQ ID NO:1) 5′-[…]-3′ and (SEQ ID NO:2) 5′-[…]-3′; SR-BI/CLA-1, (SEQ ID NO:3) 5′-CCA […] GGC TTC TGC-3′ and (SEQ ID NO:4) 5′-CTG AAT GGC CTC CTT ATC C-3′; ABCA1, (SEQ ID NO:5) 5′-CAACTACAAAGCCCTCTTTG-3′ and (SEQ ID NO:6) 5′-CTTGGCTGTTCTCCATGAAG-3′; and IL-1β, (SEQ ID NO:7) 5′-CTG AAA GCT CTC CAC CTC-3′ and (SEQ ID NO:8) 5′-GTG CTG ATG TAC CAG TTG-3′.
as §4

ABCA1 = assay: RT-PCR of ABCA1 mRNA in RAW cells exposed to LPS preparations; type: cell-based, mouse; conditions: inhibitor 20 mM added 2 h before LPS 10 ng/ml, 24 h
Procedure: as §1, §2, §3, §4

THP-1 cells [2] = assay: LPS-stimulated cytokine production in THP-1 cells (ELISA); type: cell-based, human; conditions: 10 ng/ml LPS, 24 h
Procedure: (§5) THP-1 and CLA-1 overexpressing HeLa cells. Human monocyte-macrophages, THP-1 (ATCC [American Type Culture Collection] TIB 71), are grown in 48-well plates in RPMI 1640 medium supplemented with 10% fetal calf serum (FCS), penicillin (100 U/ml), and streptomycin (100 μg/ml). All experiments involving LPS-induced interleukin production utilize the same media except that 1% FCS was used. Hela cells were cultured as previously reported (Vishnyakova, T. G. et al. (2003) “BINDING AND INTERNALIZATION OF LIPOPOLY[…] CLA-1, A HUMAN ORTHOLOGUE OF RODENT […] RECEPTOR B1,” J. Biol. Chem 278:22771-22780).
Assays for cytokines and lactate dehydrogenase (LD). […]

[3] = Limulus amebocyte lysate (LAL) assay for LPS incubated with peptides; conditions: RPMI-1640 1% FCS or DPBS; 10 ng/ml LPS, 10 μg/ml peptide, 37° C., 24 h
From the text: Limulus Amebocyte Lysate (LAL) Assay for LPS.
Limulus amebocyte lysate (LAL) assay for LPS.

CLA-1 [4] = target: T1, CLA-1 (Homo sapiens, UniProt Q8WTV0); type: binding; conditions: for competition of unlabelled ligands against 125I-LPS (0111:B4): 100× excess unlabeled ligand, CLA-1 overexpressing and mock-transfected cells
T1 construct: using the expression plasmid pTRE2 (Clontech, Pal Alto, Calif.), encoding a CLA-1 protein (pTRE2-CLA-1); expressed in transfected cells; host or cells: HeLa (Tet-off) cells (Clontech), stably co-transfected with pTRE2-CLA-1 and pTK-Hyg and selected with hygromycin
T1 sequence (Q8WTV0 1-509 isoform Q8WTV0-2): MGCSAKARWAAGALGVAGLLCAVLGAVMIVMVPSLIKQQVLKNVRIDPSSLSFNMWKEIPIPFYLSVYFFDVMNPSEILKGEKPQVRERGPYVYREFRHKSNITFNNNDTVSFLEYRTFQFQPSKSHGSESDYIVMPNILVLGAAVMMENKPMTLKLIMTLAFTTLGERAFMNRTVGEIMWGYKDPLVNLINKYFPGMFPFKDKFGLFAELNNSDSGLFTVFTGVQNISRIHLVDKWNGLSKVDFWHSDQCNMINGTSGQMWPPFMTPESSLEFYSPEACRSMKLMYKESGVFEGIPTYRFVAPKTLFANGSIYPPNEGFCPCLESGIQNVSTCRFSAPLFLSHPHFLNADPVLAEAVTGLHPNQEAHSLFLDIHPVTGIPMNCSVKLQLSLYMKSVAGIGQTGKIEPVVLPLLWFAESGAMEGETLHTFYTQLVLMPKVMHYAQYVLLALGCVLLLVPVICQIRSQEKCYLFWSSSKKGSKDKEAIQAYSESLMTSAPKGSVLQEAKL
Procedure: The lipopolysaccharide 0111:B4 (Sigma) is iodinated as reported by Ulevitch, R J. (1978) (“THE PREPARATION AND CHARACTERIZATION OF A RADIO IODINATED BACTERIAL LIPOPOLYSACCHARIDE,” Immunochemistry 15:157-164). […] After a 2-hr-incubation on ice, the cells are rinsed with ice-cold HBSS and utilized for radioactivity measurements as reported by Bocharov, A. V. et al. (2001) (“CHARACTERIZATION OF A 95 KDA HIGH AFFINITY HUMAN HIGH DENSITY LIPOPROTEIN-BINDING PROTEIN,” Biochemistry 40:4407-4416). Specific binding is determined as the difference between total and non-specific binding, and normalized by protein content.
HeLa cells grown until 70% confluence in DMEM with 10% FCS are washed with PBS and cultured for 24 hr in serum-free DMEM. […] After washing with ice-cold PBS, the cells are hydrolyzed in 1 N NaOH. Radioactivity is counted in an LKB Wallac Ultragamma counter.

THP-1 cells [5] = assay: LTA, Gro-EL and HSP60 stimulated IL-8/IL-6 production in THP-1 cells; type: cell-based, human; conditions: 1 μg/ml LTA or Gro-EL, 10-200 fold excess of peptide
Procedure: as §5
(§6) Assays for cytokines and lactate dehydrogenase (LD).

THP-1 cells [6] = assay: TNFα-induced IL-6 and IL-8 secretion in THP-1 cells; type: cell-based, human
From the text: as §6

SR-BI/CLA-1 [7] = assay: Competition for 125I-HDL binding sites in RAW cells; design: species or system mouse; conditions: 50 μg/ml LPS analogs
Procedure: Competition Binding Experiments. RAW cells are cultured for 24 hr in serum free DMEM before experiment. […] Cell radioactivity is measured as described in the “LPS-binding assay” section.

CLA-1 [8] = target: T1, CLA-1; assay: 125I-HDL binding and HDL-CE uptake in CLA-1 stably transfected HeLa cells
Procedure: CLA-1 Overexpression HeLa cells. HeLa (Tet-off) cells (Clontech, Pal Alto, Calif.) are grown in DMEM (Invitrogen), supplemented with 10% fetal calf serum, 2 mM glutamine, 100 IU/ml of penicillin, 100 μg/ml of streptomycin, and 100 μg/ml of G418. Cells were transfected with FuGENE-6 (Roche Diagnostics), using the expression plasmid pTRE2 (Clontech, Pal Alto, Calif.), encoding a CLA-1 protein (pTRE2-CLA-1). Cells were co-transfected with pTRE2-CLA-1 and pTK-Hyg (Clontech, Pal Alto, Calif.), using a 1:20 ratio, and selected with 400 μg/ml of hygromycin. Hygromycin resistant cells were screened for the expression of the CLA-1 protein by utilizing rabbit anti-SR-BI/CLA-1 (Novus Biological, Inc) by Western blotting.
HDL-Binding And Cholesteryl Oleoyl Uptake Assays. Saturation binding experiments are performed at 4° C. using ^125I-HDL concentrations between 1.25 and 40 μg/ml. […] After a 2 hr-incubation on ice, specific binding is determined as reported by Bocharov, A. V. et al. (2001) (“CHARACTERIZATION OF A 95 KDA HIGH AFFINITY HUMAN HIGH DENSITY LIPOPROTEIN-BINDING PROTEIN,” Biochemistry 40:4407-4416).
HDL-[^3H]CE uptake experiments are performed in a serum free DMEM containing 0.2% BSA. […] Specific uptake is determined as the difference between total and nonspecific uptake.

[9] = target: T2, CLA-1 (CD36 and LIMPII Analogous-1), human scavenger receptor class B type I (human, UniProt Q8WTV0 1-552); assay: confocal microscopy of Alexa 568-labelled peptide uptake, CLA-1 HeLa against mock HeLa
T2 construct: whole, on cells; Target is CLA-1 on stably transfected HeLa cells, compared with mock-transfected HeLa cells, which carry a low endogenous level of CLA-1; also called SR-BI/CLA-1; human SR-BI
T2 sequence (looked up): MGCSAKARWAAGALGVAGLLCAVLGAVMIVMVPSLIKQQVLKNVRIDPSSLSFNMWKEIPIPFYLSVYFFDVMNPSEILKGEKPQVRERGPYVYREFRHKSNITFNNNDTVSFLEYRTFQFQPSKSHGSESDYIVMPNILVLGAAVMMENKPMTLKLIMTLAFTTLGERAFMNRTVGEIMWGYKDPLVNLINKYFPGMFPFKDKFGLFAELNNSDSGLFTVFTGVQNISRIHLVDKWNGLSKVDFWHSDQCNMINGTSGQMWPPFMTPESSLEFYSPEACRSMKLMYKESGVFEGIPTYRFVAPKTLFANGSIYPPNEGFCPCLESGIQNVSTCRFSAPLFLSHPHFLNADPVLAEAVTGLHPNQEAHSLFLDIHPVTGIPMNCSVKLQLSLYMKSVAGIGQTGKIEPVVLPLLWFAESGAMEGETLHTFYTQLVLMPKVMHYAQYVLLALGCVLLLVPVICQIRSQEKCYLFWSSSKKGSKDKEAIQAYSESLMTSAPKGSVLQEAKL

[10] = inhibitor 20 mM added 2 h before LPS 10 ng/ml

Cc1ccc(S(=O)(=O)N[C@@H](Cc2ccccc2)C(=O)CCl)cc1 [TPCK, tosylphenyl chloromethyl ketone]
effect on LPS-induced increase of IL-1β mRNA (IL-1β; [10]): effectively prevented
effect on LPS-induced SR-BI/CLA-1 mRNA level decrease (SR-BI/CLA-1 [1]; [10]): effectively prevented
effect on LPS-induced ABCA1 mRNA level decrease (ABCA1): effectively prevented

DWLKAFYDKVAEKLKEAF-P-DWLKAFYDKVAEKLKEAF [D-37PA] ([dD][dW][dL][dK][dA][dF][dY][dD][dK][dV][dA][dE][dK][dL][dK][dE][dA][dF][dP][dD][dW][dL][dK][dA][dF][dY][dD][dK][dV][dA][dE][dK][dL][dK][dE][dA][dF]) [Peptide D-37PA]
effect on LPS-stimulated cytokine (IL-8, IL-6, TNF-α) production (THP-1 cells [2]): similarly effective in a blocking
effect on LAL activity of LPS in media containing bivalent cations [3]: neither L-37PA nor D-37PA affected LPS's endotoxin activity
competition against 125I-LPS (CLA-1 [4]; 1 μg/ml 125I-LPS, mock transfected and CLA-1 overexpressing HeLa cells): competed in a dose-dependent manner
effect on LTA and Gro-EL stimulated IL-8 and IL-6 production (THP-1 cells [5]): similarly effective in blocking
effect on TNFα-induced IL-6 and IL-8 production (THP-1 cells [6]): neither peptides was effective in blocking

diphosphoryllipid A [DPLA]
activity as modulator of SR-BI, ABCA1 and IL-1β gene expression compared with other LPS preparations (SR-BI/CLA-1 [1]): the same activity as the complete form of LPS from E. coli
relative activities for the suppressive effect on SR-BI/CLA-1 and ABCA1 expression and SR-BI/CLA-1 protein expression (SR-BI/CLA-1 [1]): LPS (Re595)>LPS (0111:B4)>DPLA>MPLA
competition of unlabelled ligands against 125I-LPS (0111:B4) (CLA-1 [4]): compete against iodinated LPS in both cell lines
decrease of 125I-HDL-binding by forms of LPS (SR-BI/CLA-1 [7]): similarly decreased

lipid A
competition for 125I-HDL-binding to CLA-1 overexpressing human HeLa cells (CLA-1 [8]): all competed

monophosphoryllipid A [MPLA]
potency for IL-1β gene induction relative to Re595 LPS or DPLA (IL-1β; 10 ng/ml, RAW cells): approximately one-half
activity as modulator of SR-BI, ABCA1 and IL-1β gene expression compared with other LPS preparations (SR-BI/CLA-1 [1]): decreased activity compared to the other LPS derivatives
relative activities for the suppressive effect on SR-BI/CLA-1 and ABCA1 expression and SR-BI/CLA-1 protein expression (SR-BI/CLA-1 [1]): LPS (Re595)>LPS (0111:B4)>DPLA>MPLA
activity as modulator of SR-BI, ABCA1 and IL-1β gene expression compared with other LPS preparations (SR-BI/CLA-1 [1]; listed as Re595 MPLA): less potent modulator
competition of unlabelled ligands against 125I-LPS (0111:B4) (CLA-1 [4]): compete against iodinated LPS in both cell lines

B1: 18A (peptide)
peptide: DWLKAFYDKVAEKLKEAF
notes: Synthetic single class A amphipathic helix; also called 18PA; L18PA
binding result [9]: no binding
